In patent publication US9527859B2, “Amidopyridine derivative and use thereof” (Mitsubishi Tanabe Pharma Corporation, priority 2012, dated 2016):

How the values were obtained:
[1] = system: type II collagen-induced arthritis in DBA/1J mice; test: Effect on type II collagen-induced arthritis in DBA/1J mice; type: in vivo, mouse; settings: oral, once a day for three weeks from booster immunization; significant inhibitory effect on arthritis
Method: Effect on Type II Collagen-Induced Arthritis in DBA/1J Mice
An emulsion was prepared by mixing 200 μg of bovine type II collagen (purchased from collagen Gijyutsu Kenshuukai) with Freund's complete adjuvant (Sigma-Aldrich) containing killed Mycobacterium tuberculosis H37Ra, and arthritis was induced by immunization through subcutaneous administration of the emulsion to the tail of 6 to 7 week-old male DBA/1J mouse (Charles River Japan, Inc.), followed by booster immunization three weeks after the first immunization by administration of the same amounts of the emulsion prepared in a similar way. Test compound was suspended or dissolved in 0.5% carboxymethylcellulose (Sigma-Aldrich) and repeatedly administered orally once a day at a dose of 1 to 10 mg/kg body weight using an oral sonde for three weeks from the day of booster immunization. In this model, the symptom of arthritis of the limbs was each evaluated according to the following evaluation criteria of 0 to 4 scores: […], No change; 1, edema in only one joint; 2, edema in two or more joints, or mild edema of the entire limb; 3, severe edema of the entire limb; 4, severe edema of the entire limb and ankylosis and immovability of joint. The score of arthritis of each mouse was expressed as the total of the scores of the limbs (Maximum: 16 points). On the next day of the final administration, soft X-ray photograph of the limbs was taken with soft X-ray equipment (Omic), and the level of joint destruction was evaluated by observation under a microscope. In each finger of the limbs the score of joint destruction in each mouse was judged in the total of scores for each finger of limbs (Maximum: 20) as 0 when no joint destruction was found, and as 1 when one or more destruction was found. The arthritis score and joint destruction score were expressed as the average value and standard error for each group (n=6 to 9). Only a vehicle was administered in a control group, and statistical analysis was performed by Dunnett's multiple comparison test, in which the case was judged as significant when the p value was less than 0.05.

HepG2 cells = test: Evaluation of hepatocyte cytotoxicity using HepG2 cells (CellTiter-Glo); type: cell-based, human; settings: for Survival rate (%): cell survival rate
Method: Evaluation of Hepatocyte Cytotoxicity Using HepG2 Cells
A culture solution was prepared by adding 10% Fetal Bovine Serum (FBS: treated to be inactivated under the condition of 56° C., 30 minutes, Invitrogen, 10082-147), 0.1 mM Non-Essential Amino Acids (NEAA: Invitrogen, 11140-050), 1 mM sodium pyruvate (PyNa: Invitrogen, 11360-070) to Eagle's MEM medium (Invitrogen, 11875-093) and was used after warming to 37° C. before using.
HepG2 cell line (DS Pharma Biomedical) derived from human hepatoma in logarithmic growth phase were used. The number of cells subjected to subculturing was 1 to 5×10^6 cell/15 mL in a 75 cm^2 cultivation flask, and cells were subcultured about every 1 week depending on the condition of cells. In subculturing, cells were rinsed with D-PBS (−) (invitrogen, 14190-144) (10 mL), then thereto was added 0.25% Trypsin-1 mM EDTA (Invitrogen, 25200-056) (1 mL), and the mixture was treated for 10 minutes (37° C., 5% CO2), then thereto was added culture solution (9 mL), and the mixture was collected and centrifuged (1000 rpm×5 minutes, 4° C.). The number of cells were counted by dyeing with 0.4% trypan blue solution (Invitrogen, 15250-061), and then cells were diluted with culture solution to be a specific number of cells and incubated under the condition of 37° C., 5% CO2.
As to a cell seeding, HepG2 cells which were incubated in a 75 cm^2 flask were rinsed with D-PBS (−) (10 mL), and then thereto was added 0.25% Trypsin-1 mM EDTA (1 mL), and the mixture was treated for 10 minutes (37° C., 5% CO2). Thereto was added additional culture solution (9 mL), and the mixture was collected in a 50 mL centrifuge tube to be centrifuged (1000 rpm×5 minutes, 4° C.). A supernatant was removed, and the residual cells were suspended by additional culture solution and sufficiently single-celled by pipetting. After dyeing with 0.4% trypan blue, the number of cells were counted by using a cell counting chamber, and a suspended cell was prepared in a specified cell density (In case of 24-hour exposure: 1×10^5, in case of 48-hour exposure: 5×10^4 cells/mL). The 100 μL of cell suspension was added per 1 well (n=3, 24 hours: 1×10^4, 48 hours: 5×10^3 cells/100 μL/well) of 96 well Clear bottom black microplate (Corning, 3603), and then the mixture was pre-incubated for about 24 hours under the condition of 37° C., 5% CO2.
Stock solutions of test compounds were prepared in a 200-fold concentration of the desired maximum concentration to be homogenized with optional ultrasonication. These stock solutions were preserved at −20° C. Before using, a stock solution was thawed, and diluted with DMSO to be concentrations of 20 mM to 20 μM (common ratio of 3, 7 concentrations in total), and then it was diluted with culture solution in 100-fold to prepare a culture solution containing test compounds in a 2-fold concentration. Thus, the upper limit of the final concentration of DMSO in culture solution was in principle 0.5% (v/v).
A vehicle control group and a positive control group were set with each measurement plate. Chlorpromazine (Wako Pure Chemical Industries, Ltd., 033-10581) was used as a positive control agent (final concentration 24 hours: 20 μM, 48 hours: 15 μM). 20 mM stock solution was thawed, and then diluted with culture solution, and chlorpromazine-containing culture solution was prepared in 2-fold concentration.
As to the treatment of test compounds, a culture solution (100 μL) containing a test compound or a positive control agent and a culture solution (100 μL) containing vehicle were added to each specified well. A culture solution (200 μL) was added to blank (without cells) well. Thus, total amounts of culture solution of each well were 200 μL, and the final concentration of test compounds was 100 μM to 0.1 μM (common ratio of 3, 7 concentrations in total).
Incubation was carried out under the condition of 37° C., 5% CO2 for 24 or 48 hours. […]

| SMILES | Effective Dose (showing arthritis-inhibiting activity) [1] | Cell survival rate (HepG2 cells) | Survival rate (%) (HepG2 cells) |
| --- | --- | --- | --- |
| Cc1c(C(=O)Nc2cnc(N3CCC(O)CC3)c(C3CC3)c2)cnn1-c1ccc(Cl)cc1 [Example 39, 1-(4-chlorophenyl)-N-[5-cyclopropyl-6-(4-hydroxypiperidin-1-yl)pyridin-3-yl]-5-methyl-1H-pyrazole-4-carboxamide] | 3 mg/kg | 65.8% | 107.1% |
| Cc1cc(NC(=O)c2cnn(-c3ccc(Cl)cc3)c2C)cnc1N1CCC(O)CC1 [Example 43, 1-(4-chlorophenyl)-N-[6-(4-hydroxypiperidin-1-yl)-5-methylpyridin-3-yl]-5-methyl-1H-pyrazole-4-carboxamide] |  |  | 117.8% |
| Cc1c(C(=O)Nc2cnc(N3CCC(O)CC3)c(C#N)c2)cnn1-c1ccc(Cl)cc1 [Example 44, 1-(4-chlorophenyl)-N-[5-cyano-6-(4-hydroxypiperidin-1-yl)pyridin-3-yl]-5-methyl-1H-pyrazole-4-carboxamide] | 3 mg/kg |  | 95.8% |
| Cc1c(C(=O)Nc2cnc(N3CCC(O)CC3)c(C#N)c2)cnn1-c1ccc(C(F)(F)F)cc1 [Example 45, N-[5-cyano-6-(4-hydroxypiperidin-1-yl)pyridin-3-yl]-5-methyl-1-[4-(trifluoromethyl)phenyl]-1H-pyrazole-4-carboxamide] | 10 mg/kg |  | 92.5% |
| Cc1cc(NC(=O)c2cnn(-c3ccc(C(F)(F)F)cc3)c2C)cnc1N1CCC(C(C)(C)F)CC1 [Example 47, N-{6-[4-(1-fluoro-1-methylethyl)piperidin-1-yl]-5-methylpyridin-3-yl}-5-methyl-1-[4-(trifluoromethyl)phenyl]-1H-pyrazole-4-carboxamide] |  |  | 99.8% |
| Cc1cc(NC(=O)c2cnn(-c3ccc(C(F)(F)F)cn3)c2C)cnc1N1CCC(C(C)(C)F)CC1 [Example 49, N-{6-[4-(1-fluoro-1-methylethyl)piperidin-1-yl]-5-methylpyridin-3-yl}-5-methyl-1-[5-(trifluoromethyl)pyridin-2-yl]-1H-pyrazole-4-carboxamide] |  |  | 102.3% |
